In the supplement of paper PMC8967900:

Legend:
Assay in all cases: selective drug sensitivity score (sDSS, relative to normal bone marrow) (sDSS (score)); higher = more potent and effective on the cell line relative to normal bone marrow cells
Conditions in all cases: 72 h
KOPN-8 = system: KOPN-8
MHH-CALL-2 = system: MHH-CALL-2
PF-382 = system: PF-382
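Further: ALL cell lines in 384-well plates, five doses spanning 10,000-fold, each plate scaled between vehicle and 100 µmol/L benzalkonium chloride controls, sDSS an adapted area-under-curve metric.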

SMILES | selective drug sensitivity score (KOPN-8) | selective drug sensitivity score (MHH-CALL-2) | selective drug sensitivity score (PF-382)
COc1cc2c(NC3CCN(C(C)C)CC3)nc(C3CCCCC3)nc2cc1OCCCN1CCCC1 [UNC0638] (top concentration 10000 nM) | -4.44 | -2.84 | -0.54
CCCCNc1ncc(C(=O)NCc2ccc(-n3ccnc3)cc2)c(NC2CCC(O)CC2)n1 (configuration not stated) [UNC2881] (top concentration 2500 nM) | 0.2 | 0 | 0
CC[C@@H]1CN(C(=O)NCC(F)(F)F)C[C@@H]1c1cnc2cnc3[nH]ccc3n12 [Upadacitinib] (top concentration 10000 nM) | -7.16 | -7.16 | -6.06
O=C(O)CC1CC(c2ccccc2)=NO1 (configuration not stated) [VGX-1027] (top concentration 10000 nM) | -0.04 | -0.04 | -0.04
CCCCC(=O)OCC(=O)[C@]1(O)Cc2c(O)c3c(c(O)c2[C@@H](O[C@H]2C[C@H](NC(=O)C(F)(F)F)[C@H](O)[C@H](C)O2)C1)C(=O)c1c(OC)cccc1C3=O [Valrubicin] (top concentration 5000 nM) | 10.2 | 7.48 | 1.48
CCc1c(C(=O)C(N)=O)c2c(OCC(=O)O)cccc2n1Cc1ccccc1 [Varespladib] (top concentration 10000 nM) | -0.84 | -0.84 | -0.84
CC1(C)CCC(CN2CCN(c3ccc(C(=O)NS(=O)(=O)c4ccc(NCC5CCOCC5)c([N+](=O)[O-])c4)c(Oc4cnc5[nH]ccc5c4)c3)CC2)=C(c2ccc(Cl)cc2)C1 [Venetoclax] (top concentration 1000 nM) | 28.9 | 28.7 | -4.1
CCCCOc1nc(N)c2c(n1)N(Cc1cccc(CN3CCCC3)c1)CC(=O)N2 [Vesatolimod] (top concentration 10000 nM) | -3.22 | -3.52 | -3.52
CCC1=C[C@@H]2CN(C1)Cc1c([nH]c3ccccc13)[C@@](C(=O)OC)(c1cc3c(cc1OC)N(C)[C@H]1[C@@](O)(C(=O)OC)[C@H](OC(C)=O)[C@]4(CC)C=CCN5CC[C@]31[C@@H]54)C2 [Vinorelbine] (top concentration 10000 nM) | 25.8 | 19.3 | 11
